For orientation: IC50 means the concentration that gives 50% inhibition.

Structures can show the parent of a compound that is named as a salt.

Results on 5 compounds are retold here after patent US9630931B2, “Pharmaceutically active pyrazine derivatives” (Sentinel Oncology Limited, priority 2011, dated 2017).

One assay relates to MV4-11 cells. The experiment in a line: Inhibition of cell growth in MV4-11 cells (Alamar blue, 72 h). The class given is cell-based. The following applies: Homo sapiens, 72 h incubation. The method, then: (§1) Studies were carried out to test the effect of compounds on the inhibition of cell growth in MOLM-13 and MV4-11 cells.
(§2) The following protocol was used:
(§3) (a) Cells were seeded in 96-well plates at cell densities of 2500/well (MOLM-13) and 10,000/well (MV4-11). Cells were then incubated overnight prior to addition of compound or vehicle control.
(§4) (b) Test compounds were prepared from 10 mM DMSO stocks to give a final concentration range of 10 μM, 3 μM, 1 μM, 0.3 μM, […], 0.03 μM, 0.01 μM, […] vehicle control. The DMSO content was constant at 0.1%.
(§5) (c) Test compounds were incubated with the cells for 72 h at 37° C. 5% CO2 in a humidified atmosphere.
(§6) (d) Alamar blue 10% (v/v) was then added and incubated for a further 4 h, and fluorescent product detected using the BMG FLUOstar plate reader.
(§7) (e) Media only background values were subtracted and the data analysed using a 4-parameter logistic equation in GraphPad Prism.
(Alamar Blue is a resazurin reagent that responds to reducing activity.)

A further assay has as its system MOLM-13 cells. The experiment in a line: Inhibition of cell growth in MOLM-13 cells (Alamar blue, 72 h). The class given is cell-based. To be noted: Homo sapiens, 72 h incubation. Here is the method:
as §1, §2, §3, §4, §5, §6, §7

The target of another assay is Chk-1 kinase (Homo sapiens (Human), UniProt O14757). Briefly: Chk-1 kinase inhibiting activity (33P-ATP radiometric filter assay, CHKtide substrate). The class given is biochemical. The following applies: recombinant full length GST-tagged CHK-1 0.5 nM, CHKtide 20 μM, 120 minutes at room temperature; read-out: IC50 against Chk-1 kinase. Here is the method: The compounds of the invention were tested for activity against Chk-1 kinase using the materials and protocols set out below.
Base Reaction buffer: 20 mM Hepes (pH 7.5), 10 mM MgCl2, 1 mM EGTA, 0.02% Brij35, 0.02 mg/ml BSA, 0.1 mM Na3VO4, 2 mM DTT, 1% DMSO
Required cofactors are added individually to each kinase reaction
(i) Prepare indicated substrate in freshly prepared Base Reaction Buffer
(ii) Deliver any required cofactors to the substrate solution above
(iii) Deliver indicated kinase into the substrate solution and gently mix
(iv) Deliver compounds in DMSO into the kinase reaction mixture
(v) Deliver ^33P-ATP (specific activity 0.01 μCi/μl final) into the reaction mixture to initiate the reaction.
(vi) Incubate kinase reaction for 120 minutes at room temperature
(vii) Reactions are spotted onto P81 ion exchange paper (Whatman #3698-915)
(viii) Wash filters extensively in 0.1% phosphoric acid.
(ix) Dry filters and measure counts in scintillation counter
Recombinant full length construct, N-terminal GST tagged, purified from insect cells.
No special measures were taken to activate this kinase.
Final concentration in assay=0.5 nM
Peptide sequence: [[…]]
Final concentration in assay=20 μM
No additional cofactors are added to the reaction mixture
From the results obtained by following the above protocol, the IC50 values against Chk-1 kinase of a number of the compounds of the Examples were determined and these are shown in Table 3.

For assay [1], the system named is triple negative negative breast cancer cells. To be noted: cited from earlier work.
For assay [2], the system named is MYC oncogene driven murine spontaneous cancer model. The following applies: cited from earlier work.
Assay [3] has as its system thirty ovarian cancer cell lines. To be noted: cited from earlier work.

Chain of Chk-1 kinase (O14757 whole entry): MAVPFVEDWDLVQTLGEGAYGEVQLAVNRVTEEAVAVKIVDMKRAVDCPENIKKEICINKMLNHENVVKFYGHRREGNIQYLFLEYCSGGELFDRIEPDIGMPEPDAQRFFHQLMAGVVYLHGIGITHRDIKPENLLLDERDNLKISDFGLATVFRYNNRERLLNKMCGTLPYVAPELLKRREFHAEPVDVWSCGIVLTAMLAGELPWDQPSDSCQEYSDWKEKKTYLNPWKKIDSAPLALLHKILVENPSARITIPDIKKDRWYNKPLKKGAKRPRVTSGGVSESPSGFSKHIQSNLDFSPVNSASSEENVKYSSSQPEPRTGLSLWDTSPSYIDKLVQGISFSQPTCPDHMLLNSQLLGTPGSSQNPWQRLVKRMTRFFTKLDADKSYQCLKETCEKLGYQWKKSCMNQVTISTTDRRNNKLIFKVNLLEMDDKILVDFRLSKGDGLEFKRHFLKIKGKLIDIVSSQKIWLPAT

Regarding `COc1cc(CCNCCN2CCN(C)CC2)c(Cl)cc1NC(=O)Nc1cnc(C#N)cn1` [Example 9, 1-(5-Chloro-2-methoxy-4-{2-[2-(4-methyl-piperazin-1-yl)-ethylamino]-ethyl}-phenyl)-3-(5-cyano-pyrazin-2-yl)-urea hydrochloride], the IC50 with MV4-11 cells worked out at 56 nM; in the assay with MOLM-13 cells, 29 nM; on Chk-1 kinase, 0.69 nM.

Take `COc1cc(CCN[C@@H](C)C2CCN(C(=O)C3CC3)CC2)c(Cl)cc1NC(=O)Nc1cnc(C#N)cn1` [Example 10, 1-(5-Chloro-4-{2-[(S)-1-(1-cyclopropane-carbonyl-piperidin-4-yl)-ethylamino]-ethyl}-2-methoxy-phenyl)-3-(5-cyano-pyrazin-2-yl)-urea hydrochloride]: the IC50 in the assay with MV4-11 cells worked out at 80 nM; in the assay on MOLM-13 cells, 35 nM; at Chk-1 kinase, 0.65 nM.

Turning to `COc1cc(CCN[C@@H](C)C2CCN(S(C)(=O)=O)CC2)c(Cl)cc1NC(=O)Nc1cnc(C#N)cn1` [Example 11, 1-(5-Chloro-4-{2-[(S)-1-(1-methanesulfonyl-piperidin-4-yl)-ethylamino]-ethyl}-2-methoxy-phenyl)-3-(5-cyano-pyrazin-2-yl)-urea hydrochloride], the 50% inhibitory concentration (IC50) with MV4-11 cells came to 231 nM; in the assay on MOLM-13 cells, 59 nM; at Chk-1 kinase it was 0.28 nM.

As for `N#Cc1cnc(NC(=O)Nc2ccc(CCNCC3CCCCC3)c(Cl)c2)cn1` [Example 12, 1-{3-Chloro-4-[2-(cyclo-hexylmethyl-amino)-ethyl]-phenyl}-3-(5-cyano-pyrazin-2-yl)-urea hydrochloride], the IC50 was determined as 740 nM with MV4-11 cells, 1600 nM in the assay on MOLM-13 cells and 30 nM at Chk-1 kinase.

For the compound `Cn1cc(-c2[nH]c3cc(NC(=O)[C@H](N)C4CCCCC4)cc4c3c2C=NNC4=O)cn1` [PF-00477736], the “growth of triple negative breast cancer cells” value in assay [1] was “inhibits the growth”. The “single agent activity in MYC oncogene driven murine spontaneous cancer model” value in assay [2] was “selective single agent activity”. The “growth of ovarian cancer cell lines” value in assay [3] is recorded as “inhibits the growth”.
